Reference: patent US20240327426A1, “CRYSTALLINE FORMS OF CEFTIBUTEN” (QPEX BIOPHARMA, INC., priority 2021, published 2024)

Experiments:
Type in all cases: physicochemical
[1] = Form stability upon storage/shipping at ambient temperature and humidity
Description: (§1) In a reaction vessel are charged 400 mL of demineralized water, 37.0 g crude Ceftibuten and 190 mL acetone at 20-25° C. To this mixture is added with stirring a solution of 22.1 g NaHCO3 and 252.2 mL of demineralized water, keeping the pH at 6.5-6.9. The pH is then adjusted to 6.5-6.7 using 15% aqueous H2SO4. To the resulting solution are charged 13.8 g aluminum oxide, 5 g Norit charcoal, 1.5 g Na2S2O4 and 0.25 g disodium EDTA. The mixture is stirred for 20-25 min maintaining pH at 6.5-6.7 with 15% aqueous H2SO4, and is then filtered and washed with 200 mL of demineralized water. The filtrate is added over 20-30 min to a second vessel containing 630 mL water, 81 g malic acid and 175 g 15% aqueous H2SO4, maintaining the temperature at 20-25° C. After stirring for 50-70 min, the pH is adjusted to 2.9-3.1 over 20-25 min at 20-25° C. with a solution constituted by 30 g of K2CO3 and 70 g of demineralized water. This mixture is stirred for 2-2.5 hours, after which it is filtered and washed 5 times with demineralized water (250 mL each). The wet product is dried at 30° C. in a vacuum oven. Depending on the extent of drying, the resulting product may be Form A, Form B, or a mixture of Forms A and B. Three batches prepared by this procedure are shown in Table 1 below.

[2] = Karl Fischer moisture content of ceftibuten hydrate batches; conditions: batches prepared by procedure of Example 1, dried at 30° C. in a vacuum oven
Description: as §1
Karl Fischer analyses were carried out using a Mettler-Toledo C20 Coulometric KF titrator. The instrument was calibrated using a Hydranal water standard containing 1% water. The titrant was a Hydranal methanol solution.

[3] = Differential scanning calorimetry (DSC); conditions: 25° C. to 350° C. at 10° C. per minute, nitrogen purge
Description: DSC analysis was carried out using a TA Instruments Q2500 Discovery Series instrument. The instrument temperature calibration was performed using indium. The DSC cell was kept under a nitrogen purge of ˜50 mL per minute during the analysis. The sample was placed in a standard, crimped, aluminum pan and was heated from approximately 25° C. to 350° C. at a rate of 10° C. per minute.

[4] = Physical stability under relative humidity conditions, checked by X-ray powder diffraction
Excerpt: In some embodiments, Form A of the compound of Formula (I) may contain between two to three molar equivalents of water. Samples of Form A of the compound of Formula (I) were exposed to several relative humidity conditions ranging from 15% to 100% relative humidity for a period of 14 days, after which an X-ray powder diffraction was taken. In one embodiment, samples Form A of the compound of Formula (I) were exposed to several relative humidity conditions, including 15% relative humidity, 30% relative humidity, 45% relative humidity, 60% relative humidity, 75% relative humidity, and 100% relative humidity for a period of 14 days, after which an X-ray powder diffraction was taken. […] In some embodiments, Form B of the compound of Formula (I) may contain between two to three molar equivalents of water. […] X-ray diffraction was used to characterize the compound of Formula (I). A Rigaku Smart-Lab X-ray diffraction system was configured for reflection Bragg-Brentano geometry using a line source X-ray beam. The x-ray source was a Cu Long Fine Focus tube that may be operated at 40 kV and 44 mA. That source provides an incident beam profile at the sample that changes from a narrow line at high angles to a broad rectangle at low angles. […] Each sample was analyzed from 2 to 40° 2θ using a continuous scan of 6° 2θ per minute with an effective step size of 0.02° 2θ.

[5] = Moisture sorption-desorption (dynamic vapor sorption) analysis; conditions: for Crystalline form after moisture sorption-desorption analysis: 25° C., 5 to 95% RH adsorption and 95 to 5% RH desorption, 10% RH steps
Description: In one embodiment, moisture sorption-desorption analyses were taken after running the moisture sorption-desorption experiments. […] DVS analysis was carried out TA Instruments Q5000 Dynamic Vapor Sorption analyzer. The instrument was calibrated with standard weights and a sodium bromide standard for humidity. Samples were analyzed at 25° C. with a maximum equilibration time of 60 minutes in 10% relative humidity (RH) steps from 5 to 95% RH (adsorption cycle) and from 95 to 5% RH (desorption cycle).

SMILES | Crystalline form change / stability upon storage/shipping [1] | Dehydration temperature during heating [3] | Hygroscopicity [5] | Crystalline form after moisture sorption-desorption analysis [5] | other results
Nc1nc(/C(=C/CC(=O)O)C(=O)N[C@@H]2C(=O)N3C(C(=O)O)=CCS[C@H]23)cs1 [Batch 1, ceftibuten] | converted from a mixture to all Form B | – | – | – | Moisture Content [2]: 9.44%
Nc1nc(/C(=C/CC(=O)O)C(=O)N[C@@H]2C(=O)N3C(C(=O)O)=CCS[C@H]23)cs1 [Batch 2, ceftibuten] | – | – | – | – | Moisture Content ([2]; listed as 2): 8.60%
Nc1nc(/C(=C/CC(=O)O)C(=O)N[C@@H]2C(=O)N3C(C(=O)O)=CCS[C@H]23)cs1 [Batch 3, ceftibuten] | – | – | – | – | Moisture Content ([2]; listed as 3): 11.68%

Second part, led by results:

Crystalline form change / stability upon storage/shipping [1] | Dehydration temperature during heating [3] | Hygroscopicity [5] | Crystalline form after moisture sorption-desorption analysis [5] | SMILES | other results
– | approximately 100 °C | moderately hygroscopic | convert to Form B | Nc1nc(/C(=C/CC(=O)O)C(=O)N[C@@H]2C(=O)N3C(C(=O)O)=CCS[C@H]23)cs1 [Form A, ceftibuten] | Form conversion under extremely dry conditions ([4]; 0% relative humidity): may convert to Form B; X-ray powder diffraction form after relative humidity exposure ([4]; 15%, 30%, 45%, 60%, 75% and 100% relative humidity, 14 days): match for Form A
increased stability | approximately 100 °C | moderately hygroscopic | remain stable and unchanged | Nc1nc(/C(=C/CC(=O)O)C(=O)N[C@@H]2C(=O)N3C(C(=O)O)=CCS[C@H]23)cs1 [Form B, ceftibuten] | –
